# Data published in PMC3541007 (ChemMedChem, 2009).
# “And” between values parts separate entries of the source, which are not always exact repeats. Equal values may be shown once. Read-outs that look alike come from different tables or passages of the source.
# Assays:
# [1] = system: M. tuberculosis clinical isolate 12081; assay type: cell-based; settings: for MIC clinical isolate 12081: multi-drug resistant isolate, four weeks
# [2] = system: M. tuberculosis H37Rv inhA (S94A); assay type: cell-based, Mycobacterium tuberculosis
# [3] = system: M. tuberculosis H37Rv ΔkatG; assay type: cell-based, Mycobacterium tuberculosis
# [4] = system: M. tuberculosis clinical isolate 5071; assay type: cell-based; settings: multi-drug resistant isolate, four weeks
Compound,fold resistance of strain 12081 ([1]; MIC ratio vs wild-type strain) [fold],MIC H37Rv inhA (S94A) [2],fold loss in potency versus InhA(S94A) strain compared to wild-type [2] [fold],times less active against the ΔkatG mutant [3],MIC clinical isolate 12081 [1] [µg/mL],MIC clinical isolate 12081 ([1]; value in parentheses) [µM],MIC clinical isolate 5071 [4] [µg/mL],MIC clinical isolate 5071 ([4]; value in parentheses) [µM]
"NNC(=O)c1ccncc1 [INH, isoniazid]",17,0.50 (3.6) µg/ml and 0.50 (3.6) µM,8,more than 3000 times,,,,
5-n-butyltriclosan [Compound 10],,37 (120) µg/ml and 37 (120) µM,,,37,120,4.7,15
